{"source": "patent US20230201244A1", "about": "“COMPOSITIONS AND METHODS FOR PREVENTING AND/OR TREATING MICROBIAL INFECTIONS” (University of Louisville Research Foundation, Inc., priority 2020, published 2023)", "key": {"[1]": {"system": "NF-κB (p65)", "format": "in vivo, C57BL/6 mice", "settings": "inhibitor daily for three days at 5 mg/kg/d before intratracheal exosomes"}, "[2]": {"system": "lung epithelial cells (EpCAM^+)", "experiment": "Lung apoptosis in mice given exosomes^Nsp12Nsp13 (TUNEL, Annexin V flow cytometry of EpCAM+ cells)", "format": "in vivo, C57BL/6 mice", "settings": "inhibitor pretreatment"}, "[3]": {"system": "lung epithelial A549 cells", "experiment": "Apoptosis of A549 cells by flow cytometry (Annexin V/7-AAD)", "format": "cell-based, human"}, "[4]": {"system": "TNFα, IL-1β and IL-6", "experiment": "ELISA of inflammatory cytokines in lung or lung macrophages of mice given exosomes^Nsp12Nsp13", "format": "in vivo, C57BL/6 mice", "settings": "lung macrophages, TNFα and IL-6 ELISA, i.p. pretreatment, FIG. 10B"}}}
{"compound": "Cc1ccc(S(=O)(=O)/C=C/C#N)cc1", "note": "[Bay 11-7821]", "values": [{"measurement": "lung macrophage NF-κB activity induced by exosomes^Nsp12Nsp13", "setting": "[1]", "value": "inhibited"}, {"measurement": "induction of lung epithelial cell (EpCAM+) apoptosis", "setting": "[2]; Annexin V flow cytometry, FIG. 5E", "value": "blocked"}, {"measurement": "lung apoptosis induced by exosomes^Nsp12Nsp13 (TUNEL staining)", "setting": "[2]; lung sections, FIG. 5D", "value": "reduced"}, {"measurement": "A549 cell apoptosis on direct exposure", "setting": "[3]; A549 cells presented to Nsp12/13, Bay 11-7821, FIG. 5F top panel", "value": "little influence"}, {"measurement": "apoptosis of lung epithelial cells induced by supernatant from U937 cells treated with exosomes^Nsp12Nsp13", "setting": "[3]; A549 cells, antibodies 10 ng/ml, FIG. 5F middle and bottom panel", "value": "inhibited"}, {"measurement": "inflammatory cytokines induced by exosomes^Nsp12Nsp13", "setting": "[4]", "value": "attenuation of inflammatory cytokines"}]}
